Species: Rattus norvegicus
Experiment: Open TG-GATES - Regimen: Daily Repeat
Format: toxicity, organism-based, Sprague-Dawley
Parameters: regimen Daily Repeat, gender Male, age 6 weeks
Conditions: in vivo, po, 0 mg/kg, route gavage, dose level Control; for APTT / Bas / Eos / Fbg / Hb / Ht / Lym / MCH / MCHC / MCV / Mono / Neu / PT / Plat / RBC / Ret / WBC: tissue Blood; for KIDNEY_L / KIDNEY_R / KIDNEY_TOTAL: tissue Kidney; for LIVER: tissue Liver; for A/G / ALP / ALT / AST / BUN / CRE / Ca / Cl / DBIL / GLC / IP / K / LDH / Na / PL / RALB / TBIL / TC / TG / TP / gamma-GTP: tissue Plasma

CC1=C(CC(=O)O)c2cc(F)ccc2/C1=C\c1ccc([S+](C)[O-])cc1 (configuration not stated)
TERMINAL_BW (72 h, time 3 day): 233.7 g | APTT (72 h, time 3 day): 16 s | Bas (72 h, time 3 day): 0% | Eos (72 h, time 3 day): 1% | Fbg (72 h, time 3 day): 298.2 mg/dL | Hb (72 h, time 3 day): 14.3 g/dL | Ht (72 h, time 3 day): 42.9% | Lym (72 h, time 3 day): 79% | MCH (72 h, time 3 day): 21.6 pg | MCHC (72 h, time 3 day): 33.3% | MCV (72 h, time 3 day): 64.9 fL | Mono (72 h, time 3 day): 2.2% | Neu (72 h, time 3 day): 17% | PT (72 h, time 3 day): 13.8 s | Plat (72 h, time 3 day): 126.4 x10_4/uL | RBC (72 h, time 3 day): 662.2 x10_4/ul | Ret (72 h, time 3 day): 7.1% | WBC (72 h, time 3 day): 84.9 x10_2/uL | KIDNEY_L (72 h, time 3 day): 1 g | KIDNEY_R (72 h, time 3 day): 1 g | KIDNEY_TOTAL (72 h, time 3 day): 1.9 g | LIVER (72 h, time 3 day): 11.1 g | A/G (72 h, time 3 day): 0.9 | ALP (72 h, time 3 day): 1760.4 IU/L | ALT (72 h, time 3 day): 44 IU/L | AST (72 h, time 3 day): 69.4 IU/L | BUN (72 h, time 3 day): 15 mg/dL | CRE (72 h, time 3 day): 0.2 mg/dL | Ca (72 h, time 3 day): 11.2 mg/dL | Cl (72 h, time 3 day): 105.8 meq/L | DBIL (72 h, time 3 day): 0.014 mg/dL | GLC (72 h, time 3 day): 180.6 mg/dL | IP (72 h, time 3 day): 7.5 mg/dL | K (72 h, time 3 day): 4.2 meq/L | LDH (72 h, time 3 day): 73.8 IU/L | Na (72 h, time 3 day): 142 meq/L | PL (72 h, time 3 day): 160.8 mg/dL | RALB (72 h, time 3 day): 2.7 g/dL | TBIL (72 h, time 3 day): 0.02 mg/dL | TC (72 h, time 3 day): 80.4 mg/dL | TG (72 h, time 3 day): 111.6 mg/dL | TP (72 h, time 3 day): 5.6 g/dL | gamma-GTP (72 h, time 3 day): 1 IU/L | TERMINAL_BW ([…], time 7 day): 270.8 g | TERMINAL_BW ([…], time 14 day): 336.8 g | TERMINAL_BW ([…], time 28 day): 383.5 g | APTT ([…], time 7 day): 16.4 s | Bas ([…], time 7 day): 0.2% | Eos ([…], time 7 day): 1% | Fbg ([…], time 7 day): 306.6 mg/dL | Hb ([…], time 7 day): 14.4 g/dL | Ht ([…], time 7 day): 42.3% | Lym ([…], time 7 day): 81.2% | MCH ([…], time 7 day): 21.3 pg | MCHC ([…], time 7 day): 34.1% | MCV ([…], time 7 day): 62.5 fL | Mono ([…], time 7 day): 2.6% | Neu ([…], time 7 day): 14.4% | PT ([…], time 7 day): 13.6 s | Plat ([…], time 7 day): 131.7 x10_4/uL | RBC ([…], time 7 day): 678.6 x10_4/ul | Ret ([…], time 7 day): 5.9% | WBC ([…], time 7 day): 91.7 x10_2/uL | APTT ([…], time 14 day): 17.6 s | Bas ([…], time 14 day): 0.2% | Eos ([…], time 14 day): 1% | Fbg ([…], time 14 day): 299.8 mg/dL | Hb ([…], time 14 day): 15.1 g/dL | Ht ([…], time 14 day): 44.6% | Lym ([…], time 14 day): 76.8% | MCH ([…], time 14 day): 20.9 pg | MCHC ([…], time 14 day): 33.9% | MCV ([…], time 14 day): 61.5 fL | Mono ([…], time 14 day): 2.4% | Neu ([…], time 14 day): 19.6% | PT ([…], time 14 day): 14.2 s | Plat ([…], time 14 day): 124.3 x10_4/uL | RBC ([…], time 14 day): 725.2 x10_4/ul | Ret ([…], time 14 day): 4.3% | WBC ([…], time 14 day): 92.8 x10_2/uL | APTT ([…], time 28 day): 17.9 s | Bas ([…], time 28 day): 0.2% | Eos ([…], time 28 day): 1.8% | Fbg ([…], time 28 day): 282.6 mg/dL | Hb ([…], time 28 day): 15.2 g/dL | Ht ([…], time 28 day): 46.1% | Lym ([…], time 28 day): 79.2% | MCH ([…], time 28 day): 18.9 pg | MCHC ([…], time 28 day): 32.9% | MCV ([…], time 28 day): 57.4 fL | Mono ([…], time 28 day): 1.8% | Neu ([…], time 28 day): 16.2% | PT ([…], time 28 day): 13.2 s | Plat ([…], time 28 day): 109 x10_4/uL | RBC ([…], time 28 day): 802.4 x10_4/ul | Ret ([…], time 28 day): 2.4% | WBC ([…], time 28 day): 108.9 x10_2/uL | KIDNEY_L ([…], time 7 day): 1.1 g | KIDNEY_R ([…], time 7 day): 1.1 g | KIDNEY_TOTAL ([…], time 7 day): 2.1 g | KIDNEY_L ([…], time 14 day): 1.3 g | KIDNEY_R ([…], time 14 day): 1.3 g | KIDNEY_TOTAL ([…], time 14 day): 2.5 g | KIDNEY_L ([…], time 28 day): 1.3 g | KIDNEY_R ([…], time 28 day): 1.3 g | KIDNEY_TOTAL ([…], time 28 day): 2.6 g | LIVER ([…], time 7 day): 12.7 g | LIVER ([…], time 14 day): 14.8 g | LIVER ([…], time 28 day): 14.9 g | A/G ([…], time 7 day): 0.9 | ALP ([…], time 7 day): 1662.6 IU/L | ALT ([…], time 7 day): 45.2 IU/L | AST ([…], time 7 day): 69.8 IU/L | BUN ([…], time 7 day): 16.8 mg/dL | CRE ([…], time 7 day): 0.2 mg/dL | Ca ([…], time 7 day): 10.9 mg/dL | Cl ([…], time 7 day): 104.4 meq/L | DBIL ([…], time 7 day): 0.012 mg/dL | GLC ([…], time 7 day): 183 mg/dL | IP ([…], time 7 day): 7.2 mg/dL | K ([…], time 7 day): 4.2 meq/L | LDH ([…], time 7 day): 108.4 IU/L | Na ([…], time 7 day): 140.4 meq/L | PL ([…], time 7 day): 177 mg/dL | RALB ([…], time 7 day): 2.7 g/dL | TBIL ([…], time 7 day): 0.018 mg/dL | TC ([…], time 7 day): 94.2 mg/dL | TG ([…], time 7 day): 120.4 mg/dL | TP ([…], time 7 day): 5.7 g/dL | gamma-GTP ([…], time 7 day): 0.8 IU/L | A/G ([…], time 14 day): 0.9 | ALP ([…], time 14 day): 1218 IU/L | ALT ([…], time 14 day): 38.6 IU/L | AST ([…], time 14 day): 66.8 IU/L | BUN ([…], time 14 day): 17.8 mg/dL | CRE ([…], time 14 day): 0.2 mg/dL | Ca ([…], time 14 day): 11.1 mg/dL | Cl ([…], time 14 day): 105.4 meq/L | DBIL ([…], time 14 day): 0.012 mg/dL | GLC ([…], time 14 day): 180 mg/dL | IP ([…], time 14 day): 6 mg/dL | K ([…], time 14 day): 3.8 meq/L | LDH ([…], time 14 day): 65.6 IU/L | Na ([…], time 14 day): 143.6 meq/L | PL ([…], time 14 day): 163.4 mg/dL | RALB ([…], time 14 day): 2.8 g/dL | TBIL ([…], time 14 day): 0.044 mg/dL | TC ([…], time 14 day): 73.2 mg/dL | TG ([…], time 14 day): 175.4 mg/dL | TP ([…], time 14 day): 5.9 g/dL | gamma-GTP ([…], time 14 day): 1 IU/L | A/G ([…], time 28 day): 0.8 | ALP ([…], time 28 day): 1152 IU/L | ALT ([…], time 28 day): 35.8 IU/L | AST ([…], time 28 day): 63.6 IU/L | BUN ([…], time 28 day): 16.8 mg/dL | CRE ([…], time 28 day): 0.3 mg/dL | Ca ([…], time 28 day): 10.3 mg/dL | Cl ([…], time 28 day): 105 meq/L | DBIL ([…], time 28 day): 0.012 mg/dL | GLC ([…], time 28 day): 192.2 mg/dL | IP ([…], time 28 day): 6.5 mg/dL | K ([…], time 28 day): 3.6 meq/L | LDH ([…], time 28 day): 82.8 IU/L | Na ([…], time 28 day): 142 meq/L | PL ([…], time 28 day): 128.8 mg/dL | RALB ([…], time 28 day): 2.7 g/dL | TBIL ([…], time 28 day): 0.074 mg/dL | TC ([…], time 28 day): 57.4 mg/dL | TG ([…], time 28 day): 125.6 mg/dL | TP ([…], time 28 day): 6 g/dL | gamma-GTP ([…], time 28 day): 1 IU/L
